ChEMBL document CHEMBL4765339, “Design, synthesis, and biological evaluation of 4-substituted-3,4-dihydrobenzo[h]quinoline-2,5,6(1H)-triones as NQO1-directed antitumor agents” (Eur J Med Chem, 2020)

Columns and labels:
HepG2 [1] = test: Induction of mitochondrial membrane potential loss in human HepG2 cells at 2.2 uM incubated for 48 hrs by JC-1 staining based flow cytometry analysis (reference value: 2.06 %); format: functional
HepG2 [2] = test: Induction of mitochondrial membrane potential loss in human HepG2 cells at 4.4 uM incubated for 48 hrs by JC-1 staining based flow cytometry analysis (reference value: 2.06 %); format: functional
[3] = Toxicity in athymic nude mouse xenografted with human HepG2 cells assessed as effect on body weight at 10 to 20 mg/kg, iv administered once every 2 days for 19 days; format: organism-based; conditions: in vivo, 456 h, dose 10-20 mg/kg, time 19 day
HepG2 [4] = test: Induction of apoptosis in human HepG2 cells assessed as late apoptotic cells at 4.4 uM incubated for 24 hrs by annexinV-FITC and PI staining based flow cytometry analysis (reference value: 2.27 %); format: functional
HepG2 [5] = test: Induction of mitochondrial membrane potential loss in human HepG2 cells at 1.1 uM incubated for 48 hrs by JC-1 staining based flow cytometry analysis (reference value: 2.06 %); format: functional
[6] = Selectivity index, ratio of GI50 for human L02 cells to GI50 for human HepG2 cells measured after 48 hrs by MTT assay; format: toxicity; conditions: L02 cells and HepG2 cells, read-out: RatioGI50
HepG2 [7] = test: Induction of apoptosis in human HepG2 cells assessed as necrotic cells at 2.2 uM incubated for 24 hrs in presence of dicoumarol by annexinV-FITC and PI staining based flow cytometry analysis (reference value: 0.35 %); format: functional
HepG2 [8] = test: Cytotoxicity against human HepG2 cells assessed as reduction in cell growth incubated for 48 hrs by MTT assay; format: functional
[9] = Selectivity index, ratio of GI50 for human A549 cells pretreated for 1 hr with ROS scavenger, N-acetyl cysteine followed by incubation with compound for 48 hrs to GI50 for human A549 cells measured after 48 hrs by MTT assay; format: functional
HepG2 [10] = test: Induction of apoptosis in human HepG2 cells assessed as early apoptotic cells at 1.1 uM incubated for 24 hrs by annexinV-FITC and PI staining based flow cytometry analysis (reference value: 2.65 %); format: functional
HepG2 [11] = test: Induction of apoptosis in human HepG2 cells assessed as necrotic cells at 4.4 uM incubated for 24 hrs by annexinV-FITC and PI staining based flow cytometry analysis (reference value: 0.35 %); format: functional
A549 [12] = test: Cytotoxicity against human A549 cells assessed as reduction in cell growth pretreated for 1 hr with ROS scavenger, N-acetyl cysteine followed by incubation with compound for 48 hrs by MTT assay; format: functional
[13] = Selectivity index, ratio of GI50 for human HepG2 cells pretreated for 1 hr with NQO1 inhibitor, dicoumarol followed by incubation with compound for 48 hrs to GI50 for human HepG2 cells measured after 48 hrs by MTT assay; format: functional
[14] = Selectivity index, ratio of GI50 for human A549 cells pretreated for 1 hr with NQO1 inhibitor, dicoumarol followed by incubation with compound for 48 hrs to GI50 for human A549 cells measured after 48 hrs by MTT assay; format: functional
HepG2 [15] = test: Induction of apoptosis in human HepG2 cells assessed as late apoptotic cells at 2.2 uM incubated for 24 hrs in presence of dicoumarol by annexinV-FITC and PI staining based flow cytometry analysis (reference value: 2.27 %); format: functional
A549 [16] = test: Cytotoxicity against human A549 cells assessed as reduction in cell growth incubated for 48 hrs by MTT assay; format: functional
HepG2 [17] = test: Induction of apoptosis in human HepG2 cells assessed as viable cells at 4.4 uM incubated for 24 hrs by annexinV-FITC and PI staining based flow cytometry analysis (reference value: 94.73 %); format: functional; conditions: read-out: Activity
MCF7 = test: Cytotoxicity against NQO1-rich human MCF7 cells assessed as reduction in cell growth incubated for 48 hrs by MTT assay; format: functional
HepG2 [18] = test: Induction of apoptosis in human HepG2 cells assessed as necrotic cells at 2.2 uM incubated for 24 hrs by annexinV-FITC and PI staining based flow cytometry analysis (reference value: 0.35 %); format: functional
HepG2 [19] = test: Induction of apoptosis in human HepG2 cells assessed as viable cells at 2.2 uM incubated for 24 hrs by annexinV-FITC and PI staining based flow cytometry analysis (reference value: 94.73 %); format: functional; conditions: read-out: Activity
HepG2 [20] = test: Induction of apoptosis in human HepG2 cells assessed as early apoptotic cells at 4.4 uM incubated for 24 hrs by annexinV-FITC and PI staining based flow cytometry analysis (reference value: 2.65 %); format: functional
HepG2 [21] = test: Induction of apoptosis in human HepG2 cells assessed as necrotic cells at 1.1 uM incubated for 24 hrs by annexinV-FITC and PI staining based flow cytometry analysis (reference value: 0.35 %); format: functional
HepG2 [22] = test: Cytotoxicity against human HepG2 cells assessed as reduction in cell growth pretreated for 1 hr with ROS scavenger, N-acetyl cysteine followed by incubation with compound for 48 hrs by MTT assay; format: functional
HepG2 [23] = test: Antitumor activity against human HepG2 cells xenografted in athymic nude mouse assessed as inhibition of tumor growth at 10 mg/kg, iv administered once every 2 days for 19 days by caliper analysis relative to control; format: functional; conditions: 456 h, time 19 day
HepG2 [24] = test: Induction of ROS generation in human HepG2 cells at 5 uM by DCFH-DA staining based flow cytometry analysis; format: functional, cell-based; conditions: time 3-5 hrs, TDE = time-dependent effect
HepG2 [25] = test: Induction of apoptosis in human HepG2 cells assessed as viable cells at 2.2 uM incubated for 24 hrs in presence of dicoumarol by annexinV-FITC and PI staining based flow cytometry analysis (reference value: 94.73 %); format: functional; conditions: read-out: Activity
HepG2 [26] = test: Induction of apoptosis in human HepG2 cells incubated for 24 hrs by annexinV-FITC and PI staining based flow cytometry analysis; format: functional, cell-based; conditions: dose 1.1-4.4 µM
HepG2 [27] = test: Induction of apoptosis in human HepG2 cells assessed as late apoptotic cells at 1.1 uM incubated for 24 hrs by annexinV-FITC and PI staining based flow cytometry analysis (reference value: 2.27 %); format: functional
[28] = Selectivity index, ratio of GI50 for human HepG2 cells pretreated for 1 hr with ROS scavenger, N-acetyl cysteine followed by incubation with compound for 48 hrs to GI50 for human HepG2 cells measured after 48 hrs by MTT assay; format: functional
HepG2 [29] = test: Induction of apoptosis in human HepG2 cells assessed as viable cells at 1.1 uM incubated for 24 hrs by annexinV-FITC and PI staining based flow cytometry analysis (reference value: 94.73 %); format: functional; conditions: read-out: Activity
[30] = target: NAD(P)H dehydrogenase [quinone] 1 (Homo sapiens) (UniProt P15559); test: Substrate activity at recombinant human C-terminal His-tagged NQO1 (1 to 274 residues) expressed in Escherichia coli assessed as enzyme activity by measuring oxidation of NADPH incubated for 5 mins measured per micromol of enzyme every 5 sec for 1 mins by UV-visible spectrophotometry
HepG2 [31] = test: Cytotoxicity against human HepG2 cells assessed as reduction in cell growth pretreated for 1 hr with NQO1 inhibitor, dicoumarol followed by incubation with compound for 48 hrs by MTT assay; format: functional

Activity [30]: 2770 µmol/min
Structure (SMILES): COc1ccc(C2CC(=O)NC3=C2C(=O)C(=O)c2ccccc23)cc1O (configuration not stated)
Activity (HepG2 [1]): 11.03%
Activity (HepG2 [2]): 18.12%
Activity [3]: Non-Toxic
Activity (HepG2 [4]): 17.46%
Activity (HepG2 [5]): 7.42%
selectivity ratio at 48 h [6]: 2
Activity (HepG2 [7]): 0.69%
GI50 (HepG2 [8]): 2.23 µM
RatioGI50 [9]: 2
Activity (HepG2 [10]): 7.92%
Activity (HepG2 [11]): 1.07%
GI50 (A549 [12]): 5.48 µM
RatioGI50 [13]: 2
RatioGI50 [14]: 2
Activity (HepG2 [15]): 9.46%
GI50 (A549 [16]): 3.13 µM
viability at 4.4 µM (HepG2 [17]): 66.5%
GI50 (MCF7): 3.06 µM
Activity (HepG2 [18]): 0.93%
viability at 2.2 µM (HepG2 [19]): 76%
Activity (HepG2 [20]): 14.96%
Activity (HepG2 [21]): 0.77%
GI50 (HepG2 [22]): 5.65 µM
inhibition in vivo at 10 mg/kg (HepG2 [23]): 27.2%
Activity (HepG2 [24]): Tde
viability at 2.2 µM (HepG2 [25]): 81.6%
Activity (HepG2 [26]): Dose-dependent effect
Activity (HepG2 [27]): 8.9%
RatioGI50 [28]: 2
viability at 1.1 µM (HepG2 [29]): 82.4%
GI50 (HepG2 [31]): 4.93 µM
